In this test the test system is CD8+ T cells. Put plainly: Flow cytometry of T cells in lymph nodes, blood and spleen. As to conditions: blood and spleen of 4NQO-induced HNSCC mice. Format: in vivo, mouse. The source says:
PBMCs were isolated from blood using Ficoll-Paque Plus density gradient centrifugation (GE Healthcare Life Sciences, Cat #17-1440). Cervical lymph nodes and spleens were collected and processed into single-cell suspensions through mechanical separation. The isolated or dissociated cells were stained with the specific surface marker antibodies, anti-CD3-FITC (eBioscience, Cat #11-0031), anti-CD4-APC (eBioscience, Cat #17-0041), and anti-CD8-PerCP-Cy5.5 (eBioscience, Cat #45-0081) in PBS with FBS for 30 min at 4° C. Intracellular staining of IFNγ was performed as follows: cells were stimulated with PMA and ionomysin cocktail (eBioscience, Cat #00-4970) for 5 h at 37° C. with 5% CO2. Cells were washed and stained with surface marker antibodies, then fixed and permeabilized with a fixation/permeabilization kit (BD Bioscience, Cat #554715) and intracellularly stained with anti-IFNγ-PE (eBioscience, Cat #12-7311). For proper compensation of flow cytometry channels, single-stain samples were utilized, and for gating, isotype controls were applied. The stained cells were analyzed on the BD FACS flow cytometer, and data analyzed using Flowjo software.
Background: In flow cytometry, cells or beads pass a laser one at a time.

With `COc1cc(Br)c(Nc2nc(-c3c(C)nc4ncccn34)cs2)c(Br)c1` [PTC209, N-(2,6-dibromo-4-methoxyphenyl)-4-(2-methylimidazo[1,2-a]pyrimidin-3-yl)thiazol-2-amine], the “percentage of CD8+ T cells and IFNγ-produced CD8+ T cells” value is “no significant alteration in the percentage of CD8+ T cells and IFNγ-produced CD8+ T cells”.
